The source made the active and inactive calls. The rule behind the calls is not given here.
System: CCRIS mutagenicity, Ames/micronucleus/aberration tests
Test: CCRIS mutagenicity studies
[1] = Test System: AMES SALMONELLA TYPHIMURIUM, Strain/Indicator: TA98, Metabolic Activation: NONE, Method: STANDARD PLATE
[2] = Test System: AMES SALMONELLA TYPHIMURIUM, Strain/Indicator: TA100, Metabolic Activation: NONE, Method: STANDARD PLATE

C=CCN=C=S
mutagenic call (End Point: IN VITRO CHROMOSOMAL ABERRATIONS, Test System: CHINESE HAMSTER OVARY CELLS, Metabolic Activation: NONE): active; positive
mutagenic call (End Point: IN VITRO CHROMOSOMAL ABERRATIONS, Test System: CHINESE HAMSTER OVARY CELLS, Metabolic Activation: RAT, LIVER, S-9, AROCLOR 1254): active; positive
mutagenic call (End Point: IN VITRO CHROMOSOMAL ABERRATIONS, Test System: CHINESE HAMSTER OVARY CELLS, Metabolic Activation: RAT. LIVER, S-9, AROCLOR 1254): inactive; negative
mutagenic call (Test System: AMES SALMONELLA TYPHIMURIUM, Strain/Indicator: TA97, Metabolic Activation: NONE, Method: PREINCUBATION): inactive; negative
mutagenic call (Test System: AMES SALMONELLA TYPHIMURIUM, Strain/Indicator: TA97, Metabolic Activation: NONE, Method: PREINCUBATION (120 MIN)): inactive; negative
mutagenic call (Test System: AMES SALMONELLA TYPHIMURIUM, Strain/Indicator: TA97, Metabolic Activation: RAT, LIVER, S-9, AROCLOR 1254, Method: PREINCUBATION): inactive; negative
mutagenic call (Test System: AMES SALMONELLA TYPHIMURIUM, Strain/Indicator: TA97, Metabolic Activation: S-9, Method: PREINCUBATION (120 MIN)): inactive; negative
mutagenic call (Test System: AMES SALMONELLA TYPHIMURIUM, Strain/Indicator: TA98, Metabolic Activation: NONE, Method: PREINCUBATION (120 MIN)): inactive; negative
mutagenic call [1]: inactive; negative
mutagenic call (Test System: AMES SALMONELLA TYPHIMURIUM, Strain/Indicator: TA98, Metabolic Activation: RAT LIVER S-9, AROCLOR 1254, Method: STANDARD PLATE): active; positive
mutagenic call (Test System: AMES SALMONELLA TYPHIMURIUM, Strain/Indicator: TA98, Metabolic Activation: S-9, Method: PREINCUBATION (120 MIN)): inactive; negative
mutagenic call (Test System: AMES SALMONELLA TYPHIMURIUM, Strain/Indicator: TA98, Metabolic Activation: S-9, Method: STANDARD PLATE): inactive; negative
mutagenic call (Test System: AMES SALMONELLA TYPHIMURIUM, Strain/Indicator: TA100, Metabolic Activation: NONE, Method: PREINCUBATION (20, 60 OR 120 MIN)): inactive; negative
mutagenic call (Test System: AMES SALMONELLA TYPHIMURIUM, Strain/Indicator: TA100, Metabolic Activation: NONE, Method: PREINCUBATION (120 MIN)): inactive; negative
mutagenic call [2]: inactive; negative
mutagenic call (Test System: AMES SALMONELLA TYPHIMURIUM, Strain/Indicator: TA100, Metabolic Activation: RAT LIVER S-9, AROCLOR 1254, Method: STANDARD PLATE): active; positive
mutagenic call (Test System: AMES SALMONELLA TYPHIMURIUM, Strain/Indicator: TA100, Metabolic Activation: RAT, LIVER, S-9, AROCLOR 1254 (3.8 MG PROTEIN/ML), Method: PREINCUBATION (60 OR 120 MIN)): active; positive
mutagenic call (Test System: AMES SALMONELLA TYPHIMURIUM, Strain/Indicator: TA100, Metabolic Activation: RAT, LIVER, S-9, AROCLOR 1254 (3.8 OR 11.4 MG PROTEIN/ML), Method: PREINCUBATION (20 MIN)): inactive; negative
mutagenic call (Test System: AMES SALMONELLA TYPHIMURIUM, Strain/Indicator: TA100, Metabolic Activation: RAT, LIVER, S-9, AROCLOR 1254 (11.4 MG PROTEIN/ML), Method: PREINCUBATION (60 MIN)): inactive; negative
mutagenic call (Test System: AMES SALMONELLA TYPHIMURIUM, Strain/Indicator: TA100, Metabolic Activation: RAT, LIVER, S-9, AROCLOR 1254 (11.4 MG PROTEIN/ML), Method: PREINCUBATION (120 MIN)): active; positive
mutagenic call (Test System: AMES SALMONELLA TYPHIMURIUM, Strain/Indicator: TA100, Metabolic Activation: S-9, Method: PREINCUBATION (120 MIN)): inactive; negative
mutagenic call (Test System: AMES SALMONELLA TYPHIMURIUM, Strain/Indicator: TA100, Metabolic Activation: S-9, Method: STANDARD PLATE): inactive; negative
mutagenic call (Test System: AMES SALMONELLA TYPHIMURIUM, Strain/Indicator: TA102, Metabolic Activation: NONE, Method: PREINCUBATION): inactive; negative
mutagenic call (Test System: AMES SALMONELLA TYPHIMURIUM, Strain/Indicator: TA102, Metabolic Activation: RAT, LIVER, S-9, AROCLOR 1254, Method: PREINCUBATION): inactive; negative
mutagenic call (Test System: UDS RAT HEPATOCYTES, Strain/Indicator: THY-INCORP, Metabolic Activation: IN VIVO, Method: AUTORADIOGRAPHY): inactive; negative

CC1=C(/C=C/C(C)=C/C=C/C(C)=C/C=C/C=C(C)/C=C/C=C(\C)C=O)C(C)(C)CCC1
mutagenic call (End Point: In vitro chromosomal aberrations, Test System: Primary rat (Fischer, female) hepatocytes, Metabolic Activation: None): active; positive
mutagenic call (End Point: In vitro micronucleus, Test System: Primary rat (Fischer, female) hepatocytes, Metabolic Activation: None): active; positive
mutagenic call [1]: inactive; negative
mutagenic call (Test System: AMES SALMONELLA TYPHIMURIUM, Strain/Indicator: TA98, Metabolic Activation: RAT, LIVER, S-9, AROCLOR 1254, Method: STANDARD PLATE): inactive; negative
mutagenic call [2]: inactive; negative
mutagenic call (Test System: AMES SALMONELLA TYPHIMURIUM, Strain/Indicator: TA100, Metabolic Activation: RAT, LIVER, S-9, AROCLOR 1254, Method: STANDARD PLATE): inactive; negative

COC(=O)[C@@H]1[C@H]2C[C@H]3c4[nH]c5ccccc5c4CCN3C[C@@H]2CC[C@@H]1O
mutagenic call (Test System: Mouse lymphoma, Strain/Indicator: L5178Y (tk+/tk-), Metabolic Activation: None, Method: Suspension/plate): inactive; inconclusive (previous evaluation negative)
mutagenic call (Test System: Mouse lymphoma, Strain/Indicator: L5178Y (tk+/tk-), Metabolic Activation: Rat, Liver, S-9, Aroclor 1254, Method: Suspension/plate): inactive; inconclusive (previous evaluation negative)

O=[N+]([O-])NC1=NCCN1Cc1ccc(Cl)nc1
mutagenic call (End Point: In vitro micronucleus, Test System: Human lymphocytes, Metabolic Activation: None): inactive; negative
mutagenic call (End Point: In vitro micronucleus, Test System: Human peripheral blood lymphocytes, Metabolic Activation: None): inactive; negative
mutagenic call (End Point: In vitro micronucleus, Test System: Human peripheral blood lymphocytes, Metabolic Activation: Rat, Liver, S-9 (10%)): active; positive (at highest dose only)
mutagenic call (End Point: In vivo chromosomal aberrations, Test System: Bone marrow polychromatic erythrocytes, Species: Rat, Strain/Sex: Wistar, Route: Oral): active; positive (structural changes)
mutagenic call (End Point: In vivo micronucleus, Test System: Bone marrow polychromatic erythrocytes, Species: Rat, Strain/Sex: Wistar/Male, Route: Oral): active; positive (at high dose)
mutagenic call (End Point: In vivo micronucleus, Test System: Bone marrow polychromatic erythrocytes, Species: Rat, Strain/Sex: Wistar, Route: Oral): active; positive
mutagenic call (Test System: Ames Salmonella typhimurium, Strain/Indicator: TA98, Metabolic Activation: None, Method: Preincubation): active; positive
mutagenic call (Test System: Ames Salmonella typhimurium, Strain/Indicator: TA98, Metabolic Activation: Rat, Liver, S-9 (10%), Aroclor 1254, Method: Preincubation): active; positive
mutagenic call (Test System: Ames Salmonella typhimurium, Strain/Indicator: TA100, Metabolic Activation: None, Method: Preincubation): inactive; negative
mutagenic call (Test System: Ames Salmonella typhimurium, Strain/Indicator: TA100, Metabolic Activation: Rat, Liver, S-9 (10%), Aroclor 1254, Method: Preincubation): inactive; negative

CCOc1cccc2cccnc12
mutagenic call (Test System: AMES SALMONELLA TYPHIMURIUM, Strain/Indicator: TA100, Metabolic Activation: S-9, Method: PREINCUBATION): inactive; negative
